Results reported in patent US20100286147A1 (priority 2008, published 2010).

What was measured:
Type in all cases: in vivo
Phytophthora infestans [1] = conditions: tomato seedlings, sprayed the day before inoculation; visual rating, 100 = 100% disease control, 0 = no control relative to controls; test concentration not given
Plasmopara viticola = test: Test A: grape downy mildew, grape seedlings sprayed after inoculation; conditions: sprayed 24 h after inoculation, visual rating, 100 = 100% disease control, 0 = no control relative to controls, test concentration not given
Text: General protocol for preparing test suspensions for Test A-C: The test compounds were first dissolved in acetone in an amount equal to 3% of the final volume and then suspended at the desired concentration (in ppm) in acetone and purified water (50/50 mix by volume) containing 250 ppm of the surfactant Trem® 014 (polyhydric alcohol esters). The resulting test suspensions were then used in Tests A-C. Spraying a 40 ppm test suspension to the point of run-off on the test plants was equivalent to a rate of 100 g/ha.
Grape seedlings were inoculated with a spore suspension of Plasmopara viticola (the causal agent of grape downy mildew) and incubated in a saturated atmosphere at 20° C. for 24 h. After a short drying period, the test suspension was sprayed to the point of run-off on the grape seedlings, which were then moved to a growth chamber at 20° C. for 5 days, after which time the grape seedling were placed back into a saturated atmosphere at 20° C. for 24 h. Upon removal, visual disease ratings were made.
Results for Tests A-C are given in Table A. In the table, a rating of 100 indicates 100% disease control and a rating of 0 indicates no disease control (relative to the controls).

Phytophthora infestans [2] = conditions: tomato seedlings, sprayed 17 h after inoculation; visual rating, 100 = 100% disease control, 0 = no control relative to controls; test concentration not given

SMILES	Percent Disease Control Test B (Phytophthora infestans [1]) [%]	Percent Disease Control Test A (Plasmopara viticola) [%]	Percent Disease Control Test C (Phytophthora infestans [2]) [%]
Cc1cc(C(F)(F)F)nn1CC(=O)N1CCC(c2nc(C3=NOC(c4cccc(-n5cncn5)c4)C3)cs2)CC1 (stereo not drawn) [Compound 1, 1-[4-[4-[4,5-dihydro-5-[3-(1H-1,2,4-triazol-1-yl)phenyl]-3-isoxazolyl]-2-thiazolyl]-1-piperidinyl]-2-[5-methyl-3-(trifluoromethyl)-1H-pyrazol-1-yl]ethanone]	100	91	99
Cc1cc(C(F)(F)F)nn1CC(=O)N1CCC(c2nc(C3=NOC(c4ccc(-c5ccccc5)cc4)C3)cs2)CC1 (stereo not drawn) [Compound 2]	90	76	32
Cc1cc(C(F)(F)F)nn1CC(=O)N1CCC(c2nc(C3=NOC(c4ccccc4Oc4ccccc4)C3)cs2)CC1 (stereo not drawn) [Compound 3]	100	97	93
Cc1cc(C(F)(F)F)nn1CC(=O)N1CCC(c2nc(C3=NOC(c4ccccc4N4CCCCC4)C3)cs2)CC1 (stereo not drawn) [Compound 4]	99	58	83
Cc1cc(C(F)(F)F)nn1CC(=O)N1CCC(c2nc(C3=NOC(c4ccccc4-n4cncn4)C3)cs2)CC1 (stereo not drawn) [Compound 5]	100	98	99
Cc1cc(C(F)(F)F)nn1CC(=O)N1CCC(c2nc(C3=NOC(c4ccccc4N4CCOCC4)C3)cs2)CC1 (stereo not drawn) [Compound 6]	100	87	99
Cc1cc(C(F)(F)F)nn1CC(=O)N1CCC(c2nc(C3=NOC(c4ccccc4Cc4ccccc4)C3)cs2)CC1 (stereo not drawn) [Compound 7]	99	73	86
Cc1cccc(C2CC(c3csc(C4CCN(C(=O)Cn5nc(C(F)(F)F)cc5C)CC4)n3)=NO2)c1-n1c(O)nn(C)c1=O (stereo not drawn) [Compound 8]	100	0	53
Cc1cc(C(F)(F)F)nn1CC(=O)N1CCC(c2nc(C3=NOC(c4ccccc4C(=O)c4ccccc4)C3)cs2)CC1 (stereo not drawn) [Compound 9]	100	0	17
Cc1cc(C(F)(F)F)nn1CC(=O)N1CCC(c2nc(C3=NOC(c4ccccc4N4CCN(C)CC4)C3)cs2)CC1 (stereo not drawn) [Compound 10]	100	10	93
Cc1cc(C(F)(F)F)nn1CC(=O)N1CCC(c2nc(C3=NOC(c4c(F)cccc4-n4cncn4)C3)cs2)CC1 (stereo not drawn) [Compound 11]	100	99	99
COc1nn(C)c(=O)n1-c1c(C)cccc1C1CC(c2csc(C3CCN(C(=O)Cn4nc(C(F)(F)F)cc4C)CC3)n2)=NO1 (stereo not drawn) [Compound 12]	100	31	99
Cc1cc(C(F)(F)F)nn1CC(=O)N1CCC(c2nc(C3=NOC(n4ccc(-c5ccccc5)n4)C3)cs2)CC1 (stereo not drawn) [Compound 13]	100	56	93
Cc1cc(C(F)(F)F)nn1CC(=O)N1CCC(c2nc(C3=NOC(N4C(=O)NC(C)(c5ccccc5)C4=O)C3)cs2)CC1 (stereo not drawn) [Compound 15]	100	92	97
Cc1cc(C(F)(F)F)nn1CC(=O)N1CCC(c2nc(C3=NOC(c4ccccc4-c4ccccc4)C3)cs2)CC1 (stereo not drawn) [Compound 16]	100	99	99
Cc1ccc(C)c(NC(=O)N2CCC(c3nc(C4=NOC(c5ccccc5-c5ccccc5)C4)cs3)CC2)c1 (stereo not drawn) [Compound 17, 4-[4-(5-[1,1′-biphenyl]-2-yl-4,5-dihydro-3-isoxazolyl)-2-thiazolyl]-N-(2,5-dimethylphenyl)-1-piperidinecarboxamide]	100	98	99
Cc1ccc(C)c(NC(=O)N2CCC(c3nc(C4=NOC(c5ccccc5Oc5ccccc5)C4)cs3)CC2)c1 (stereo not drawn) [Compound 18]	93	67	58
Cc1ccc(C)c(NC(=O)N2CCC(c3nc(C4=NOC(c5ccccc5-n5cncn5)C4)cs3)CC2)c1 (stereo not drawn) [Compound 19]	100	99	99
